“And” between values parts separate entries of the source, which are not always exact repeats. Identical values can stand only once. Like-named read-outs stand apart in the source and are kept apart here. Values belong to the molecule of their own block, whether it stands above or below them.
Legend:
MDA-MB-231 = test: Migration inhibition, MDA-MB-231 (Table 1B); format: cell-based; conditions: Homo sapiens
MDA-MB-231 cells = test: Cell viability assay (CellTiter 96 / MTT), MDA-MB-231; conditions: Homo sapiens, MDA-MB-231, read-out: GI50 (μM) MDA-MB-231
Rac = conditions: read-out: IC50 (effective concentrations); cited from earlier work
Rac and Cdc42 = conditions: cited from earlier work
[1] = after oral and intraperitoneal (i.p.) administration; cited from earlier work
Cdc42 = Cdc42 (Homo sapiens, UniProt P60953); conditions: cited from earlier work
Rac1 [2] = molecular target: T1, Rac1 (Homo sapiens, UniProt P63000); conditions: cited from earlier work
T1 construct: host or cells: MDA-MB-435

Rac1 [3] = molecular target: T1, Rac1; test: Rac activity inhibition by EHop-016 (reported), MDA-MB-435 metastatic cells; format: cell-based
mammary tumor = conditions: cited from earlier work

Sequence of Cdc42 (P60953 whole entry): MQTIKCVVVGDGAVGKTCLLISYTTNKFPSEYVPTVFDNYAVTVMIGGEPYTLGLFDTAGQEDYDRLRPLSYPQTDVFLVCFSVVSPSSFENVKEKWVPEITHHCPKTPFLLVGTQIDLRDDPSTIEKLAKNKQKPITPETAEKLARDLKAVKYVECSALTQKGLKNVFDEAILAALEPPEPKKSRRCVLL

Structure (SMILES): CCn1c2ccccc2c2cc(-n3nncc3-c3cccc(C)c3)ccc21 [I-2, 9-ethyl-3-(5-(m-tolyl)-1H-1,2,3-triazol-1-yl)-9H-carbazole]
inhibition at 1 µM (MDA-MB-231): ≤ 1%
GI50 (MDA-MB-231 cells): 1.33 µM

Structure (SMILES): CCN(CC)CCCC(C)Nc1nc(C)cc(Nc2ccc3nc(C)cc(N)c3c2)n1 (centres unmarked) [NSC23766]
IC50 (Rac): > 75000 nM

Structure (SMILES): Cc1cc2cc(Nc3ccnc(Nc4ccc5[nH]c(C)cc5c4)n3)ccc2[nH]1 [Aza-1]
effective concentration range (Rac and Cdc42): effective in the micromolar range

Structure (SMILES): COc1ccc(C2=NN(c3ccc(S(N)(=O)=O)cc3)C(c3ccccc3)C2)cc1 (centres unmarked) [CID2950007/ML141]
effective concentration range (Rac and Cdc42): effective in the micromolar range

Structure (SMILES): CCn1c2ccccc2c2cc(Nc3ccnc(NCCCN4CCOCC4)n3)ccc21 [EHop-016]
average half-life [1]: 4.5 h
bioavailability [1]: ~30%
concentrations inhibiting Cdc42 activity (Cdc42): ≥ 10 µM
inhibition of Cdc42 activity (Cdc42; higher concentrations (>10 μM)): 75%
IC50 (Cdc42; read-out: IC50 for Cdc42 inhibition): ~8000 nM
IC50 (Rac1 [2]; MDA-MB-435 metastatic cells, read-out: IC50 for Rac activity): 1100 nM and ~1100 nM
concentrations inhibiting Rac1 activity (Rac1 [2]): < 5 µM
inhibition of Rac activity (Rac1 [2]; higher concentrations (>10 μM)): 100%
IC50 (Rac1 [2]; read-out: IC50 (Rac inhibitor)): 1100 nM
potency relative to NSC23766 (Rac1 [3]): ~100 ×
reduction of tumor growth (mammary tumor; 10 mg/kg BW): ~40%
effect on mammary tumor growth, metastasis and angiogenesis (mammary tumor; 25 mg/kg BW): reduces mammary tumor growth, metastasis, and angiogenesis
toxicity (mammary tumor; 25 mg/kg BW): without apparent toxicity

Further lines, with some results ahead:

GI50 (MDA-MB-231 cells): > 50 µM
Structure (SMILES): CCn1c2ccccc2c2cc(-n3nncc3-c3ccccn3)ccc21 [I-6, 9-ethyl-3-(5-(pyridin-2-yl)-1H-1,2,3-triazol-1-yl)-9H-carbazole]
inhibition at 10 µM (MDA-MB-231): 28%

GI50 (MDA-MB-231 cells): > 50 µM
Structure (SMILES): CCn1c2ccccc2c2cc(-n3nncc3-c3ccc(Oc4ccccc4)cc3)ccc21 [I-7]
inhibition at 10 µM (MDA-MB-231): 30.8%

GI50 (MDA-MB-231 cells): 0.248 µM
Structure (SMILES): CCn1c2ccccc2c2cc(-n3nncc3-c3cccc(OC)c3)ccc21 [I-3, 9-ethyl-3-(5-(3-methoxyphenyl)-1H-1,2,3-triazol-1-yl)-9H-carbazole]
inhibition at 1 µM (MDA-MB-231): ≤ 1%

GI50 (MDA-MB-231 cells): > 50 µM
Structure (SMILES): CCn1c2ccccc2c2cc(-n3nncc3CCO)ccc21 [I-8, 2-(1-(9-ethyl-9H-carbazol-3-yl)-1H-1,2,3-triazol-5-yl)ethan-1-ol]

GI50 (MDA-MB-231 cells): 0.408 µM
Structure (SMILES): CCn1c2ccccc2c2cc(-n3nncc3-c3ccsc3)ccc21 [I-5, 9-ethyl-3-(5-(thiophen-3-yl)-1H-1,2,3-triazol-1-yl)-9H-carbazole]
inhibition at 1 µM (MDA-MB-231): 2.4%

GI50 (MDA-MB-231 cells): > 50 µM
Structure (SMILES): CCn1c2ccccc2c2cc(-n3nncc3-c3cccnc3)ccc21 [I-4, 9-ethyl-3-(5-(pyridin-3-yl)-1H-1,2,3-triazol-1-yl)-9H-carbazole]
inhibition at 10 µM (MDA-MB-231): 65.1%
